Experimental data taken from the supplement of paper PMC10307832.

Compound: NCC(=O)Nc1ccc(-n2nc(C(F)(F)F)cc2-c2ccc3c(ccc4ccccc43)c2)cc1 + C[C@]1(O)C[C@@H](c2nc(-c3ccc4ccc(-c5ccccc5)nc4c3)c3c(N)nccn32)C1 [Linsitinib] (partner 1 µM)
Assay: relative viability (nuclei count vs DMSO), 5 days (fraction); higher = more cells survive
Details: first compound 2 µM
Procedure, shortened: (§1)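 Relative viability divides the nuclei count in treated wells by that in vehicle wells. Lung cancer cell lines were seeded in 1536-well plates, dosed by pin tool the next day, and fixed and stained after 5 days in one step with final 0.05% Triton X-100, 1% formaldehyde and 1 ug/ml Hoechst. Dosing was a single drug or a fixed anchor-drug dose plus five library-drug doses (not always all listed) in √10 steps, and values are medians of duplicate plates imaged at 4×.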

Point of comparison: HCC-15, relative viability 0.944. Against it:
- EPLC-272H — higher, 1.18
- NCI-H2228 — lower, 0.79
- NCI-H1792 — lower, 0.552
- NCI-H1355 — lower, 0.82
- NCI-H3122 — higher, 1.04
- NCI-H1437 — higher, 1.02
- NCI-H1755 — higher, 0.995
- NCI-H2023 — lower, 0.707
- NCI-H1793 — higher, 0.962
- PC-14 — higher, 0.993
- EKVX — higher, 1.11
- LC-2-ad — lower, 0.897
- NCI-H1944 — higher, 1.3
- NCI-H1975 — lower, 0.921
- RERF-LC-KJ — higher, 0.982
- NCI-H358 — lower, 0.737
- NCI-H650 — higher, 1.08

Compound: NCC(=O)Nc1ccc(-n2nc(C(F)(F)F)cc2-c2ccc3c(ccc4ccccc43)c2)cc1 + CC(=O)Nc1cccc(-n2c(=O)n(C3CC3)c(=O)c3c(Nc4ccc(I)cc4F)n(C)c(=O)c(C)c32)c1 [Trametinib] (partner 0.02 µM)
Assay: as above
Details: first compound 0.02 µM
Procedure, shortened: as §1

Point of comparison: NCI-H1793, relative viability 0.438. Against it:
- NCI-H2009 — lower, 0.265
- A-427 — higher, 0.722
- NCI-H441 — lower, 0.394
- NCI-H661 — higher, 0.547
- NCI-H1734 — higher, 0.686
- NCI-H460 — lower, 0.19
- NCI-H2347 — lower, 0.311
- SK-LU-1 — lower, 0.43
- NCI-H1395 — higher, 1.09
- 201T — higher, 0.692
- NCI-H1915 — lower, 0.284
- HCC-827 — higher, 0.572
- LXF-289 — higher, 0.716
- NCI-H23 — lower, 0.313
- NCI-H647 — higher, 0.535
- CAL-12T — lower, 0.304
- NCI-H1651 — higher, 0.804
- EPLC-272H — lower, 0.269
- NCI-H2228 — higher, 0.559
- NCI-H1792 — higher, 0.486
- NCI-H1355 — lower, 0.414
- NCI-H3122 — lower, 0.204
- NCI-H1437 — higher, 0.519
- NCI-H1755 — higher, 0.782
- NCI-H2023 — higher, 0.552
- HCC-15 — lower, 0.386
- PC-14 — higher, 0.861
- EKVX — lower, 0.408
- LC-2-ad — higher, 0.952
- NCI-H1944 — lower, 0.429
- NCI-H1975 — lower, 0.399
- RERF-LC-KJ — higher, 0.89
- NCI-H358 — lower, 0.127
- NCI-H650 — higher, 0.991

Same assay, conditions: first compound 0.06325 µM

Point of comparison: NCI-H3122, relative viability 0.245. Against it:
- NCI-H2009 — higher, 0.35
- A-427 — higher, 0.787
- NCI-H441 — higher, 0.436
- NCI-H661 — higher, 0.559
- NCI-H1734 — higher, 0.712
- NCI-H460 — lower, 0.175
- NCI-H2347 — higher, 0.285
- SK-LU-1 — higher, 0.519
- NCI-H1395 — higher, 0.998
- 201T — higher, 0.717
- NCI-H1915 — higher, 0.314
- HCC-827 — higher, 0.584
- LXF-289 — higher, 0.705
- NCI-H23 — higher, 0.456
- NCI-H647 — higher, 0.512
- CAL-12T — higher, 0.401
- NCI-H1651 — higher, 0.815
- EPLC-272H — higher, 0.297
- NCI-H2228 — higher, 0.593
- NCI-H1792 — higher, 0.425
- NCI-H1355 — higher, 0.481
- NCI-H1437 — higher, 0.579
- NCI-H1755 — higher, 0.765
- NCI-H2023 — higher, 0.709
- HCC-15 — higher, 0.416
- NCI-H1793 — higher, 0.373
- PC-14 — higher, 0.704
- EKVX — higher, 0.356
- LC-2-ad — higher, 0.971
- NCI-H1944 — higher, 0.408
- NCI-H1975 — higher, 0.39
- RERF-LC-KJ — higher, 0.839
- NCI-H358 — lower, 0.127
- NCI-H650 — higher, 1.03

Same assay, conditions: first compound 0.2 µM

Point of comparison: NCI-H1944, relative viability 0.437. Against it:
- NCI-H2009 — lower, 0.316
- A-427 — higher, 0.866
- NCI-H441 — higher, 0.507
- NCI-H661 — higher, 0.56
- NCI-H1734 — higher, 0.667
- NCI-H460 — lower, 0.165
- NCI-H2347 — lower, 0.297
- SK-LU-1 — higher, 0.537
- NCI-H1395 — higher, 1.1
- 201T — higher, 0.747
- NCI-H1915 — lower, 0.31
- HCC-827 — higher, 0.58
- LXF-289 — higher, 0.67
- NCI-H23 — higher, 0.448
- NCI-H647 — higher, 0.591
- CAL-12T — lower, 0.394
- NCI-H1651 — higher, 0.858
- EPLC-272H — lower, 0.305
- NCI-H2228 — higher, 0.548
- NCI-H1792 — higher, 0.471
- NCI-H1355 — higher, 0.47
- NCI-H3122 — lower, 0.188
- NCI-H1437 — higher, 0.497
- NCI-H1755 — higher, 0.737
- NCI-H2023 — higher, 0.702
- HCC-15 — higher, 0.447
- NCI-H1793 — higher, 0.498
- EKVX — lower, 0.428
- LC-2-ad — higher, 0.951
- NCI-H1975 — lower, 0.405
- RERF-LC-KJ — higher, 0.847
- NCI-H358 — lower, 0.133
- NCI-H650 — higher, 1.01

Same assay, conditions: first compound 0.6325 µM

Point of comparison: NCI-H2228, relative viability 0.572. Against it:
- NCI-H2009 — lower, 0.275
- A-427 — higher, 0.721
- NCI-H441 — lower, 0.523
- NCI-H661 — higher, 0.644
- NCI-H1734 — higher, 0.657
- NCI-H460 — lower, 0.145
- NCI-H2347 — lower, 0.268
- SK-LU-1 — lower, 0.521
- NCI-H1395 — higher, 1.03
- 201T — higher, 0.725
- NCI-H1915 — lower, 0.296
- HCC-827 — lower, 0.553
- LXF-289 — higher, 0.672
- NCI-H23 — lower, 0.422
- NCI-H647 — lower, 0.434
- CAL-12T — lower, 0.339
- NCI-H1651 — higher, 0.798
- EPLC-272H — lower, 0.299
- NCI-H1792 — lower, 0.406
- NCI-H1355 — lower, 0.428
- NCI-H3122 — lower, 0.232
- NCI-H1437 — lower, 0.467
- NCI-H1755 — higher, 0.768
- NCI-H2023 — lower, 0.513
- HCC-15 — lower, 0.369
- NCI-H1793 — lower, 0.435
- PC-14 — higher, 0.625
- EKVX — lower, 0.366
- LC-2-ad — higher, 0.95
- NCI-H1944 — lower, 0.413
- NCI-H1975 — lower, 0.32
- RERF-LC-KJ — higher, 0.843
- NCI-H358 — lower, 0.138
- NCI-H650 — higher, 0.948
